Reference: patent US20220144842A1, “IRAK INHIBITORS, PREPARATION METHOD AND MEDICINAL USES THEREOF” (Eternity Bioscience Inc., priority 2020, published 2022)
Like-named read-outs stand apart in the source and are kept apart here.

What was measured:
[1] = target: T1, full length human IRAK4 protein (Homo sapiens, UniProt Q9NWZ3); assay: IRAK4 Biochemical Assay (Promega ADP-Glo IRAK4 Kinase Enzyme System); conditions: 3 nM enzyme, 2 μM MBP, 250 μM ATP, 60 min at room temperature, ADP-Glo luminescence
T1 construct: Purified full length human IRAK4 protein; purchased Signal Chem 112-10G-125
T1 sequence (Q9NWZ3 1-460): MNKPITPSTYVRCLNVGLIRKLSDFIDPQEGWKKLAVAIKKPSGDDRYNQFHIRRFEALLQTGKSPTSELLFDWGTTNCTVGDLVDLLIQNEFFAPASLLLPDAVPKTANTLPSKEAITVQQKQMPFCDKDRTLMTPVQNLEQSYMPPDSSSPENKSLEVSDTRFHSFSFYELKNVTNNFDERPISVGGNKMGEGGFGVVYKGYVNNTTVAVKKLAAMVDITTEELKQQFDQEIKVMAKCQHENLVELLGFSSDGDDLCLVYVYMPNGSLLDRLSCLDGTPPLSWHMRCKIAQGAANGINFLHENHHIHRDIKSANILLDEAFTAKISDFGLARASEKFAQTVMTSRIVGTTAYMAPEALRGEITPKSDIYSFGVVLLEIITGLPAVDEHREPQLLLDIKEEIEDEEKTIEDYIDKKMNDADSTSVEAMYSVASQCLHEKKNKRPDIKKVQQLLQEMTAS
Protocol: For the routine compound screening, an IRAK4 kinase assay was performed as follows using Promega ADP-Glo IRAK4 Kinase Enzyme System (Promega, Cat #2198-AD). Purified full length human IRAK4 protein (Signal Chem; Cat #112-10G-125) was diluted to a concentration 6 nM in assay buffer (25 mM MOPS, pH 7.2, 12.5 mM β-glycerol-phosphate, 25 mM MgCl2, 5 mM EGTA, 2 mM EDTA, 0.0025% Brij-35, add 0.25 mM DTT to Kinase Assay Buffer prior to use) containing IRAK4 inhibitor at 2× the final concentration in 0.4% DMSO. The reaction was performed in PerkinElmer Proxiplate-384 plus white plate (Fisher Scientific, Cat #50-905-2761) and started by the addition of an equal volume of the assay buffer containing 4 μM native swine myelin basic protein (MBP) and 500 μM ATP to achieve a final concentration of 3 nM enzyme, 2 μM MBP, 250 μM ATP, 1× compound, and 0.2% DMSO. The kinase reaction was allowed to run for 60 min at room temperature (25-27° C.), then 5 μL of ADP-Glo was added to the reaction in each well followed by 40 minutes-incubation at RT. To detect converted ATP, 10 μL Detection Buffer was added into each well and Incubate at RT in dark for 30 minutes. Finally, luminescence was read using Tecan with 1000 ms of integration time. The luminescent signal positively correlates with ADP amount and kinase activity. Data was analyzed by GraphPad Prism and IC50 was calculated using function log(inhibitor) vs. response—Variable slope (four parameters). Percentage of inhibition was calculated as below.
(§1) % inhibition=(1−(Reading(Sample)−Reading(Negative Control))/(Reading(Positive Control)−Reading(Negative Control)))×100%
The 0% inhibition value comes from the Reading of Positive Control wells having 0 nM compound. The 100% inhibition value comes from the Reading of Negative Control wells having no IRAK4 kinase.

IRAK4 = target: T2, IRAK4 (Homo sapiens, UniProt Q9NWZ3); assay: IRAK4 Human PBMC TNFα Cell Based Assay (AlphaLISA); conditions: TNFα in culture medium
T2 construct: host or cells: human PBMCs
T2 sequence (Q9NWZ3 1-460): T1 sequence (Q9NWZ3 1-460)
Protocol: In this assay, serially diluted compounds were incubated with 1×10^4 human peripheral blood mononuclear cells (PBMCs) from STEMCELL (Cat #70025.1) per well of 384-well plate (Fisher Scientific; 50-905-2761) and cultured with TexMACS medium (Miltenyi, Cat #130-097-196), stimulated by R848 (0.5 μM) or IL-1β (10 ng/ml). Plates were covered with lids and incubated for 4 h (R848, Fisher Scientific, Cat #NC9801605) or 24 h (IL-1β, Fisher Scientific, Cat #ENRIL1BI) at 37° C. in a humidified tissue-culture incubator. After a brief centrifugation at 1000 rpm for 5 minutes, 5 μl of culture medium was used for the measurement of the TNFα amount using TNFα (human) AlphaLISA Detection Kit (PerkinElmer, Cat #AL208C) according to manufacturer's protocol. A biotinylated anti-TNFα antibody binds to the Streptavidin-coated Donor beads while another anti-TNFα antibody is conjugated to AlphaLISA Acceptor beads. In the presence of the TNFα, the beads come into close proximity. The excitation of the Donor beads causes the release of singlet oxygen molecules that triggers a cascade of energy transfer in the Acceptor beads, resulting in a sharp peak of light emission at 615 nm. AlphaLISA assay plates were read using PHERAstar. Percentage of inhibition was calculated as below:
as §1
The 0% inhibition value comes from the Reading of Positive Control wells having 0 nM compound. The 100% inhibition value comes from the Reading of Negative Control wells having no R848 or IL-1β.

[2] = human PBMCs stimulated by IL-1β (10 ng/ml), 24 h, read-out: IRAK4 PBMC AlphaLISA IL-1β (IC50)
[3] = human PBMCs stimulated by R848 (0.5 μM), 4 h, read-out: IRAK4 PBMC AlphaLISA R848 (IC50)

| Structure (SMILES) | IC50 [1] | IRAK4 Biochemical Assay Max Inhibition (%) [1] | IC50 (IRAK4; [2]) | IC50 (IRAK4; [3]) |
| --- | --- | --- | --- | --- |
| Brc1n[nH]c2nc(Nc3cnn(C4CCOCC4)c3)nc(N[C@H]3CC[C@H](N4CCOCC4)CC3)c12 [Example 1, 3-bromo-N^4-((1r,4r)-4-morpholinocyclohexyl)-N^6-(1-(tetrahydro-2H-pyran-4-yl)-1H-pyrazol-4-yl)-1H-pyrazolo[3,4-d]pyrimidine-4,6-diamine] | 4.2 nM | 100% | 16 nM | 35 nM |
| c1ccc(-c2n[nH]c3nc(Nc4cnn(C5CCOCC5)c4)nc(N[C@H]4CC[C@H](N5CCOCC5)CC4)c23)cc1 [Example 5, N^4-((1r,4r)-4-morpholinocyclohexyl)-3-phenyl-N^6-(1-(tetrahydro-2H-pyran-4-yl)-1H-pyrazol-4-yl)-1H-pyrazolo[3,4-d]pyrimidine-4,6-diamine] | 16 nM | 100% | 56 nM | 63 nM |
| c1cncc(-c2n[nH]c3nc(Nc4cnn(C5CCOCC5)c4)nc(N[C@H]4CC[C@H](N5CCOCC5)CC4)c23)c1 [Example 2, N^4-((1r,4r)-4-morpholinocyclohexyl)-3-(pyridin-3-yl)-N^6-(1-(tetrahydro-2H-pyran-4-yl)-1H-pyrazol-4-yl)-1H-pyrazolo[3,4-d]pyrimidine-4,6-diamine] | 8.2 nM | 100% | 25 nM | 24 nM |
| c1nn(C2CCOCC2)cc1Nc1nc(N[C@H]2CC[C@H](N3CCOCC3)CC2)c2c(-c3cn[nH]c3)n[nH]c2n1 [Example 3, N^4-((1r,4r)-4-morpholinocyclohexyl)-3-(1H-pyrazol-4-yl)-N^6-(1-(tetrahydro-2H-pyran-4-yl)-1H-pyrazol-4-yl)-1H-pyrazolo[3,4-d]pyrimidine-4,6-diamine] | 12 nM | 109% | – | – |
| Cc1cc(Nc2nc(N[C@H]3CC[C@H](N4CCOCC4)CC3)c3cn[nH]c3n2)sn1 [Example 6, N^6-(3-methylisothiazol-5-yl)-N^4-((1r,4r)-4-morpholinocyclohexyl)-1H-pyrazolo[3,4-d]pyrimidine-4,6-diamine] | 12 nM | 100% | 0.9 nM | 1.6 nM |
